Reference: patent US20240101542A1, “ERAP INHIBITORS” (UNIVERSITE DE LILLE, priority 2020, published 2024)

Assays:
[1] = molecular target: ERAP1 (Homo sapiens (Human), UniProt Q9NZ08); assay: In vitro ERAP activity assay, ERAP1 with L-AMC substrate; assay type: biochemical; conditions: L-AMC as substrate; read-out: IC50 on ERAP1 or ERAAP using L-AMC as substrate
Description: (§1) The enzymatic activity of ERAP1 or 2 was assayed using L-AMC (L-Leucine-7-amido-4-methylcoumarin hydrochloride) or R-AMC (L-Arginine-7-amido-4-methylcoumarin hydrochloride) respectively. Hepes at 50 mM with 100 mM NaCl at pH 7 was used as buffer. Briefly, 60 nL of test compounds were added in 384-wells plates (dark, non-binding surface) by acoustic dispensing with nanoacoustic dispenser Echo (Labcyte) and pre-incubated 30 minutes at ambient temperature with 10 μL of ERAP 0.8 μg/mL or 1 μg/mL or vehicle. The reaction was then started with the addition of 10 μL of substrate at 10 μM. The final concentration of ERAP, substrate and DMSO was 0.5 μg/mL, 5 μM and 0.4% respectively. For the kinetic readout a Victor 3V (Perkin-Elmer) was used with excitation at 380 nm and emission at 450 nm. The fluorescence was measured each 3 minutes during one hour.
(§2) The Z and Z′ factors were calculated according to J.-H. Zhang, T. D. Y. Chung, K. R. Oldenburg, A Simple Statistical Parameter for Use in Evaluation and Validation of High Throughput Screening Assays, J. Biomol. Screen., 4 (1999) 67-73. Data analysis was performed using Xlfit® v 5.0 or GraphPad Prism® v 4.0.
(§3) Percentages of inhibition at different concentrations were obtained as described above and IC50s were carried out as 8-point dose response curves and reported as the average of at least three independent measurements. […] Data analysis was performed using Xlfit® v 5.0 or GraphPad Prism® v 4.0. Nonlinear curve fitting and statistical analysis was done using built-in functions.

[2] = molecular target: ERAP2 (Homo sapiens (Human), UniProt Q6P179); assay: In vitro ERAP activity assay, ERAP2 with R-AMC substrate; assay type: biochemical; set-up: IC50 on ERAP2 using R-AMC as substrate: scale not given here; conditions: R-AMC as substrate; for IC50: read-out: IC50 on ERAP2 using R-AMC as substrate
Sequence of ERAP2 (Q6P179 whole entry): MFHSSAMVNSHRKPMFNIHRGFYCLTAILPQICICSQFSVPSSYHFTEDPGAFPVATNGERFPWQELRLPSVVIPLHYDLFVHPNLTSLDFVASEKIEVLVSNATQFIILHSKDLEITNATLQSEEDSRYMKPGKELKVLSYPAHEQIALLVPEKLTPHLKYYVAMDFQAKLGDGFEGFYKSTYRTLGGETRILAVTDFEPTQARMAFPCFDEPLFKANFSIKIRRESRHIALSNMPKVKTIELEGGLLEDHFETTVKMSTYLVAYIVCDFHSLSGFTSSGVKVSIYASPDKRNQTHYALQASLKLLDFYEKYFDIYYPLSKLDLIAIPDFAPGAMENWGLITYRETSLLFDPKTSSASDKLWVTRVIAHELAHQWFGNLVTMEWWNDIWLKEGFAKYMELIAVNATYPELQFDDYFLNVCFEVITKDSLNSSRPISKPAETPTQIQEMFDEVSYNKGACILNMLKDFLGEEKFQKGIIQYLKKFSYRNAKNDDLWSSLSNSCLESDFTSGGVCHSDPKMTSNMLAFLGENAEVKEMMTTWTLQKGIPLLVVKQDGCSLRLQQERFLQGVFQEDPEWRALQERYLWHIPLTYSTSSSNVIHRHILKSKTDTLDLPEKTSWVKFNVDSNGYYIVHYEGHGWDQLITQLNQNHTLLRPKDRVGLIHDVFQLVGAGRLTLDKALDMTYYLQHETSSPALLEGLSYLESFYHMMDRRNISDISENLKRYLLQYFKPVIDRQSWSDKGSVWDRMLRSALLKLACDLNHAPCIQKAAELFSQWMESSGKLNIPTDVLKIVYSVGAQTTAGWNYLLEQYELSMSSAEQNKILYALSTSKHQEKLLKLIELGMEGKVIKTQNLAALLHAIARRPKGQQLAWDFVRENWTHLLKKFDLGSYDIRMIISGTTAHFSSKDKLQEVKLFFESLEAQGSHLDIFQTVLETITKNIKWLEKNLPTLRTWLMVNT
Description: as §1, §2, §3

Sequence of ERAP1 (Q9NZ08 whole entry): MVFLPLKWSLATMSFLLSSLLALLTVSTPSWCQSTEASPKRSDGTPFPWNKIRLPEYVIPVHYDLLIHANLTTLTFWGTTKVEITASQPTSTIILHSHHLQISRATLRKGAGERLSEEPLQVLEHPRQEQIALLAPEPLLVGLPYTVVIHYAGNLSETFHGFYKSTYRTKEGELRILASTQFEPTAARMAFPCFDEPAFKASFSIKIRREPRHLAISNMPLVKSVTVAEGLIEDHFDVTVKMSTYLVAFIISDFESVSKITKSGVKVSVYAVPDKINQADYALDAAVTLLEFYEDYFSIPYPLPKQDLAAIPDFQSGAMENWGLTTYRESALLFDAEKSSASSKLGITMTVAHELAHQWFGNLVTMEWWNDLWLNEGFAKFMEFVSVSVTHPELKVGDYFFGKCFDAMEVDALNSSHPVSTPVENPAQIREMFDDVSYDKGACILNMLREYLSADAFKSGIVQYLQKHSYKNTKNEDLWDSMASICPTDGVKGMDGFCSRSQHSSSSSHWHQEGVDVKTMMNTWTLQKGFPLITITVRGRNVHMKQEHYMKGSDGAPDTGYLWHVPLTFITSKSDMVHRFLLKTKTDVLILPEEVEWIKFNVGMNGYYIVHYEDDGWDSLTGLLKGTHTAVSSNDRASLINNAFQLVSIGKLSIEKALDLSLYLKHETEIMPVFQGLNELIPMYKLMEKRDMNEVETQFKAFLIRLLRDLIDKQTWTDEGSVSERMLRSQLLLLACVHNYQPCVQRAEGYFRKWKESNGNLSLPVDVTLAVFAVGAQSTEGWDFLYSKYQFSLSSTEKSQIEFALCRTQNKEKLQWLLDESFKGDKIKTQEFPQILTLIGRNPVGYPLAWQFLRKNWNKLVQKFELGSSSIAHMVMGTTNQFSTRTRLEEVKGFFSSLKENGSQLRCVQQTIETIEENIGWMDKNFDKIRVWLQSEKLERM

| Compound | IC50 [1] | IC50 [2] | IC50 on ERAP2 using R-AMC as substrate [2] |
| --- | --- | --- | --- |
| N=C(NO)c1ccc(C[C@@H](C(=O)NO)n2cc(CNS(=O)(=O)c3ccc(-c4ccccc4)s3)nn2)cc1 [Compound 55] | < 5 µM | < 0.5 µM |  |
| COc1ccc(C[C@@H](C(=O)NO)n2cc(CNS(=O)(=O)c3cnc(-c4ccccc4)s3)nn2)cc1 [Compound 56] | < 5 µM | < 0.5 µM |  |
| COc1ccc(C[C@@H](C(=O)NO)n2cc(CN(C3CC3)S(=O)(=O)c3ccc(-c4ccccn4)s3)nn2)cc1 [Compound 57] | > 5 µM |  | + + |
| COc1ccc(C[C@@H](C(=O)NO)n2cc(C3CCCCN3S(=O)(=O)c3ccc(-c4ccccc4)s3)nn2)cc1 (stereo partly drawn) [Compound 58] | < 5 µM | > 5 µM |  |
| COc1ccc(C[C@@H](C(=O)NO)n2cc([C@@H]3CCCN3S(=O)(=O)c3ccc(-c4ccccc4)s3)nn2)cc1 [Compound 59] | < 5 µM | > 5 µM |  |
| N#Cc1ccc(C[C@@H](C(=O)NO)n2cc(CNS(=O)(=O)c3ccc(-c4ccccc4)s3)nn2)cc1 [Compound 60] | < 5 µM | < 0.5 µM |  |
